Measurements: US11834428B2, “Dihydromyricetin nanocrystals and preparation method and application thereof” (Shaanxi University of Science and Technology, priority 2022, dated 2023)
In brackets after ≈: the same amount, converted by molar mass.

Columns and labels:
[1] = Solubility of dihydromyricetin nanocrystals and API (solubility in cold water); format: physicochemical; details: for solubility: cold water
From the text: 1. The Effect of Stabilizers on the Particle Size and Solubilization Effect of the Dihydromyricetin Nanocrystals, See Table 1.

[2] = Particle size of dihydromyricetin nanocrystals; format: physicochemical; details: API
Method: In order to describe the dihydromyricetin nanocrystals provided by the disclosure, the relevant properties of the embodiments 1 to 6 and the comparative embodiments are measured. 1. The Effect of Stabilizers on the Particle Size and Solubilization Effect of the Dihydromyricetin Nanocrystals, See Table 1.

solubility ([1]; aqueous with cosolvent or surfactant or cyclodextrin, stabilizer sodium dodecyl sulfate (SDS)): 300 µg/mL (≈ 937 µM)
solubility ([1]; water, no stabilizer (/)): 40 µg/mL (≈ 125 µM)
Solubility in cold water ([1]; stabilizer Tween-80): 600 µg/mL (≈ 1870 µM)
Particle size [2]: ≥12 μm
SMILES: O=C1c2c(O)cc(O)cc2O[C@H](c2cc(O)c(O)c(O)c2)[C@H]1O [Dihydromyricetin API, Dihydromyricetin]
